Data on 5 molecules can be found in patent US12552825B2 (Zikani Therapeutics, Inc., priority 2019, dated 2026).

What all share (type): cell-based
One assay deals with S. aureus MP-12. The assay is described as follows: microbe, parasite or virus in culture. The following applies: Staphylococcus aureus, MP12, read-out: MIC S. aureus MP-12.
The test system of another assay is E. coli MP-4. The assay is described as follows: MIC determination by CLSI broth dilution, E. coli MP-4. Conditions: Escherichia coli, MP4, CLSI broth dilution; strain MP-4. Background: Dilution methods test growth across graded concentrations, often in twofold steps.
The next assay relates to K. pneumoniae MP-546. The assay is described as follows: MIC determination by CLSI broth dilution, K. pneumoniae MP-546. Conditions: Klebsiella pneumoniae, MP546, CLSI broth dilution; strain MP-546.
The subject of a further assay is K. pneumoniae MP-648. In words: MIC determination by CLSI broth dilution, K. pneumoniae MP-648. Conditions: Klebsiella pneumoniae, MP648, CLSI broth dilution; strain MP-648.
The test system of a further assay is P. aeruginosa MP-3. In words: MIC determination by CLSI broth dilution, P. aeruginosa MP-3. The following applies: Pseudomonas aeruginosa, MP3, strain MP-3.
For a further assay, the system named is A. baumannii MP-15. In words: MIC determination by CLSI broth dilution, A. baumannii MP-15. Conditions: Acinetobacter baumannii, MP15, strain MP-15, read-out: MIC A. baumanii MP-15.

≈ marks a conversion by molar mass, not a printed value.

For `CCCN1C[C@H](C)C[C@@](C)(OC)[C@H](O[C@@H]2O[C@H](C)C[C@H](N(C)C)[C@H]2O)[C@@H](C)C(=O)C(C)(C)C(=O)OC[C@H]1CCCN1CCCC1` [Compound 144, (3R,6R,8R,9R,10R)-9-(((2S,3R,4S,6R)-4-(dimethylamino)-3-hydroxy-6-methyltetrahydro-2H-pyran-2-yl)oxy)-8-methoxy-6,8,10,12,12-pentamethyl-4-propyl-3-(3-(pyrrolidin-1-yl)propyl)-1-oxa-4-azacyclotridecane-11,13-dione], the MIC in the assay on S. aureus MP-12 is less than 4 µg/mL; with E. coli MP-4, less than 4 µg/mL; against K. pneumoniae MP-546 it was less than 4 µg/mL; with K. pneumoniae MP-648, less than 4 µg/mL; against P. aeruginosa MP-3 it was less than 4 µg/mL; in the assay on A. baumannii MP-15 it was more than 32 µg/mL.

On to `CO[C@]1(C)C[C@@H](C)CN(C)[C@@H](CCCN2CCNC(=O)C2)COC(=O)C(C)(C)C(=O)[C@H](C)[C@H]1O[C@@H]1O[C@H](C)C[C@H](N(C)C)[C@H]1O` [Compound 115, (3S,6R,8R,9R,10R)-9-(((2S,3R,4S,6R)-4-(dimethylamino)-3-hydroxy-6-methyltetrahydro-2H-pyran-2-yl)oxy)-8-methoxy-4,6,8,10,12,12-hexamethyl-3-(3-(3-oxopiperazin-1-yl)propyl)-1-oxa-4-azacyclotridecane-11,13-dione], for which the MIC in the assay with S. aureus MP-12, in the assay on E. coli MP-4, with K. pneumoniae MP-546, against K. pneumoniae MP-648, against P. aeruginosa MP-3 and with A. baumannii MP-15 was more than 32 µg/mL throughout.

In the case of `CO[C@]1(C)C[C@@H](C)CN(C)[C@H](CC2CCN(Cc3ccncc3)CC2)COC(=O)C(C)(C)C(=O)[C@H](C)[C@H]1O[C@@H]1O[C@H](C)C[C@H](N(C)C)[C@H]1O` [Compound 61], the MIC is 4 to 32 µg/mL (≈ 5.81 to 46.4 µM) with S. aureus MP-12; less than 4 µg/mL against E. coli MP-4; 4 to 32 µg/mL (≈ 5.81 to 46.4 µM) with K. pneumoniae MP-546; 4 to 32 µg/mL (≈ 5.81 to 46.4 µM) in the assay with K. pneumoniae MP-648; more than 32 µg/mL with P. aeruginosa MP-3; more than 32 µg/mL in the assay with A. baumannii MP-15.

On to `CCCN1C[C@H](C)C[C@@](C)(OC)[C@H](O[C@@H]2O[C@H](C)C[C@H](N(C)C)[C@H]2O)[C@@H](C)C(=O)C(C)(C)C(=O)OC[C@H]1CC1CCN(C)CC1` [Compound 95, (3R,6R,8R,9R,10R)-9-(((2S,3R,4S,6R)-4-(dimethylamino)-3-hydroxy-6-methyltetrahydro-2H-pyran-2-yl)oxy)-8-methoxy-6,8,10,12,12-pentamethyl-3-((1-methylpiperidin-4-yl)methyl)-4-propyl-1-oxa-4-azacyclotridecane-11,13-dione], for which the MIC with S. aureus MP-12 is 4 to 32 µg/mL (≈ 6.25 to 50 µM); against E. coli MP-4, less than 4 µg/mL; against K. pneumoniae MP-546, less than 4 µg/mL; against K. pneumoniae MP-648, less than 4 µg/mL; against P. aeruginosa MP-3, more than 32 µg/mL; with A. baumannii MP-15 it was 4 to 32 µg/mL (≈ 6.25 to 50 µM).

For `CO[C@]1(C)C[C@@H](C)CN(C)[C@@H](CCCN2CCC(F)(F)CC2)COC(=O)C(C)(C)C(=O)[C@H](C)[C@H]1O[C@@H]1O[C@H](C)C[C@H](N(C)C)[C@H]1O` [Compound 110, (3S,6R,8R,9R,10R)-3-(3-(4,4-difluoropiperidin-1-yl)propyl)-9-(((2S,3R,4S,6R)-4-(dimethylamino)-3-hydroxy-6-methyltetrahydro-2H-pyran-2-yl)oxy)-8-methoxy-4,6,8,10,12,12-hexamethyl-1-oxa-4-azacyclotridecane-11,13-dione], the MIC in the assay on S. aureus MP-12 is 4 to 32 µg/mL (≈ 6.04 to 48.3 µM); in the assay on E. coli MP-4 it was less than 4 µg/mL; in the assay on K. pneumoniae MP-546 it was 4 to 32 µg/mL (≈ 6.04 to 48.3 µM); in the assay with K. pneumoniae MP-648, 4 to 32 µg/mL (≈ 6.04 to 48.3 µM); with P. aeruginosa MP-3, more than 32 µg/mL; in the assay with A. baumannii MP-15, more than 32 µg/mL.
